The results in this text go back to patent publication US20230338564A1, “NEODEGRADER CONJUGATES” (Orum Therapeutics, Inc., priority 2020, published 2023).

Each structure is given as a SMILES string.

Common to all, as to test: In vitro antiproliferation assay, General Procedure 2 (CCK-8)
Holding throughout (assay type): cell-based

One assay concerns BT-474 cell line. The following applies: Homo sapiens, Breast, read-out: IC50, BT474. Summed up:
(§1)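 Cells grown per ATCC/DSMZ conditions for at least two passages, then exposed to test articles from 100 nM in 4-fold serial dilutions. Adherent lines were plated 18 h before treatment and dosed 5 days; suspension lines were seeded on treatment day and dosed 3 days. Proliferation read by CCK-8.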

The next assay deals with HL-60 cell line. Conditions: Homo sapiens, HL-60; AML; read-out: IC50, HL-60. Summed up:
as §1

Another assay concerns JHUEM3 cell line. Conditions: Endometrial. Put shortly: as §1
For another assay, the system named is MV4-11 cell line. Conditions: Homo sapiens, MV4-11; Biphenotypic B myelomonocytic leukemia; read-out: IC50, MV4-11. Summed up:
as §1

A further assay concerns Molp8 cell line. Conditions: Homo sapiens, MOLP-8; MM. Summed up: as §1
The next assay deals with NB-4 cell line. The following applies: Homo sapiens, Acute promyelocytic leukemia. Summed up: as §1
In a further assay the test system is OCI-AML2 cell line. Conditions: Homo sapiens, OCI-AML2; Acute myeloid leukemia; read-out: IC50, OCI-AML2. Summed up: as §1
A further assay relates to OCI-M1 cell line. Conditions: Acute myeloid leukemia. Put shortly: as §1
Another assay deals with SK-BR-3 cell line. Conditions: Homo sapiens, Breast, read-out: IC50, SKBR3. Summed up: as §1
Another assay concerns SKOV3 cell line. The following applies: Homo sapiens, SK-OV-3; Ovarian. Summed up: as §1
A further assay deals with SNU182 cell line. Conditions: Homo sapiens, SNU-182; Liver. Summed up: as §1
The subject of another assay is SU-DHL-8 cell line. Conditions: Homo sapiens, NHL. Put shortly:
as §1

As a reminder, the IC50 is the concentration at which inhibition is half-maximal. Regarding `CNCCOCCc1ccc(NC(=O)NCc2ccc3c(c2)CN(C2CCC(=O)NC2=O)C3=O)cc1Cl` (stereo not drawn) [Compound P1, 1-(3-chloro-4-[2-[2-(methylamino)ethoxy]ethyl]phenyl)-3-[[2-(2,6-dioxopiperidin-3-yl)-1-oxo-3H-isoindol-5-yl]methyl]urea], the IC50 in the assay on BT-474 cell line is 0.013 µM; in the assay with HL-60 cell line, 0.0123 µM; in the assay with JHUEM3 cell line it was > 1 µM; in the assay with MV4-11 cell line it was 0.00272 µM; in the assay on Molp8 cell line, 0.0237 µM; in the assay on NB-4 cell line, 0.00863 µM. Moreover, the IC50 in the assay with OCI-AML2 cell line is 0.0959 µM; in the assay with OCI-M1 cell line, > 1 µM; in the assay with SK-BR-3 cell line, 0.1 µM; with SKOV3 cell line, 0.114 µM; in the assay with SNU182 cell line, 0.0127 µM; in the assay on SU-DHL-8 cell line, 0.102 µM.
